Measurements: publication PMC6385087, “New Multitarget Hybrids Bearing Tacrine and Phenylbenzothiazole Motifs as Potential Drug Candidates for Alzheimer’s Disease” (Molecules, 2019)
Entries after “also recorded” stand apart in the source; their conditions may differ.

Assays:
AChE from electric eel = molecular target: T1, AChE from electric eel (Electrophorus electricus, UniProt O42275); assay: biochemical; details: means of two experiments, read-out: Inhibition of AChE (IC50)
T1 construct: commercially available enzyme AChE 500 U (extracted from electrophorus electricus); purchased type VI-S; host or cells: extracted from electric eel
Method: The analytical grade reagents were purchased from Sigma-Aldrich (St. Louis, MO, USA) and Acros (Thermo Fisher Scientific, Geel, Belgium) and were used without any further purification. The organic solvents were dried and distilled according to standard methods described in literature. […] The Proton and Carbon-13 NMR were recorded either on Bruker AVANCE III-300 (300 MHz and 75.5 MHz) or Bruker AVANCE III-400 (400 MHz and 100.5 MHz) NMR spectrometers (Billerica, MA, USA) at 25 °C using peaks of solvents as internal standard. The chemical shift values of protons or carbons were measured on a δ scale and the coupling constant values (J) were determined in Hertz. In the NMR representation, abbreviations are mentioned as: singlet represented by s, doublet represented by d, triplet represented by t, multiplet represented by m, double doublet represented by dd, and broad singlet represented by brs. The Leica Galen III hot stage apparatus (Leica Microsystems, Wetzlar, Germany) was used for measuring the melting points of compounds. […] The AChE inhibitory activity was measured in a 1 cm path length quartz cell through a Perkin Elmer Lambda 35 spectrophotometer equipped with a temperature programmer PTP1+1 Peltier System (T = 25.0 ± 0.1 °C) (Waltham, MA, USA). Electrospray ionization-mass (ESI-MS) measurements were carried out on a LCQ Fleet mass spectrometer (Thermo Scientific, S. Jose, CA, USA) operated in the ESI positive and negative ion modes.
Modified Ellman’s method was used as described previously for the determination of AChE activity. The AChE stock solution was prepared by dissolving commercially available enzyme AChE 500 U (extracted from electrophorus electricus) in 10 mL of TRIS buffer (50 mM, pH 8). HEPES buffer was used for the dilution of the enzyme to give the final AChE concentration. The assay solution consisted of 374 μL of 4-(2-hydroxyethyl)-1-piperazineethanesulfonic acid (Hepes) buffer (50 mM, pH 8.0), 476 μL of 3 mM bis(3-carboxy-4-nitrophenyl)disulfide (DTNB), 25 μL of AChE (type VI-S, from electric eel) stock solution, a variable volume (10–50 μL) of the compound’s stock solution (1 mg/mL of MeOH), and the necessary amount of methanol to attain the same volume of sample mixture (0.925 mL) in a 1 mL cuvette. Samples were left to react for 15 min and then the reaction was monitored at wavelength of 405 nm for 5 min, after adding 75 μL of 16 mM acetylthiocholine iodide (AChI) solution. Assays were run with a blank containing all the components except AChE, which was replaced by HEPES buffer. The velocities of the reaction were calculated as well as the enzyme activity. A control reaction was carried out using the sample solvent (methanol) in the absence of any tested compound, and it was considered as 100% activity. […] The inhibition curves were obtained by plotting the percentage of enzymatic inhibition versus inhibitor concentration and a calibration curve was obtained from which the linear regression parameters were calculated.

SH-SY5Y cells = assay: Neuroprotection against Aβ1–42 induced toxicity, MTT reduction; type: cell-based, human; details: Aβ1-42 1 μM, 24 h after 1 h pre-treatment, compounds: 16 2.5 µM, 17 0.5 µM, 14 and 15 0.2 µM, 19 and 18 1 µM
Method: The neuroprotective effect of TAC-PhBTA conjugates was evaluated using SH-SY5Y cells treated with Aβ1–42 peptides or ascorbate/iron. For each compound, a dose-response curve was performed to select a non-toxic concentration in order to analyze its neuroprotective effect (Figure 3).
SH-SY5Y human neuroblastoma cell line (ATCC-CRL-2266) grown in Dulbecco’s modified Eagle’s medium (DMEM) obtained from Gibco-Invitrogen (Life Technologies Ltd., Liverpool, UK) with 10% heat inactivated fetal calf serum, containing 50 U/mL penicillin, and 50 μg/mL streptomycin, under a humidified atmosphere of 95% air-5% CO2 at 37 °C. Cells were plated at 0.12 × 10^6 cells/mL for cell viability assay. The tested compounds (16, 17, 14, 15, 19 and 18) were dissolved in DMSO at a concentration of 25 mM and aliquots were stored at −20 °C. We performed a dose-response screening (from 0.2 μM to 5 μM) in order to choose the highest non-toxic concentration. As a result we selected a 2.5 μM final concentration for compound 16; 0.5 μM final concentration for compound 17; 0.2 μM final concentration for compounds 14 and 15; and a 1 μM final concentration for compounds 19 and 18. […] The compounds were added to the cell media 1 h before the incubation with Aβ1–42 or ferrous sulfate/L-ascorbic acid. Aβ1–42 or ferrous sulfate/L-ascorbic acid where incubated alone or with the compound for an additional 24 h. Aβ1–42 was prepared as 276.9 μM stock in sterile water and added to the medium at 1 μM final concentration. Ferrous sulfate was freshly prepared as 0.36 M stock in water and added to the medium at 500 μM final concentration. L-Ascorbic Acid was freshly prepared as 80 mM stock in water and added to the medium at 5 mM final concentration. […]
Cell viability was determined by a MTT (3-(4,5-dimethylthiazol-2-yl)-2,5-diphenyltetrazolium bromide) reduction test. […] The absorbance was measured at 570 nm. Cell reduction ability was expressed as a percentage of untreated control cells.
All data were expressed as mean ± S.E.M. of at least three independent experiments performed in duplicates. […]

T1 sequence (O42275 24-633): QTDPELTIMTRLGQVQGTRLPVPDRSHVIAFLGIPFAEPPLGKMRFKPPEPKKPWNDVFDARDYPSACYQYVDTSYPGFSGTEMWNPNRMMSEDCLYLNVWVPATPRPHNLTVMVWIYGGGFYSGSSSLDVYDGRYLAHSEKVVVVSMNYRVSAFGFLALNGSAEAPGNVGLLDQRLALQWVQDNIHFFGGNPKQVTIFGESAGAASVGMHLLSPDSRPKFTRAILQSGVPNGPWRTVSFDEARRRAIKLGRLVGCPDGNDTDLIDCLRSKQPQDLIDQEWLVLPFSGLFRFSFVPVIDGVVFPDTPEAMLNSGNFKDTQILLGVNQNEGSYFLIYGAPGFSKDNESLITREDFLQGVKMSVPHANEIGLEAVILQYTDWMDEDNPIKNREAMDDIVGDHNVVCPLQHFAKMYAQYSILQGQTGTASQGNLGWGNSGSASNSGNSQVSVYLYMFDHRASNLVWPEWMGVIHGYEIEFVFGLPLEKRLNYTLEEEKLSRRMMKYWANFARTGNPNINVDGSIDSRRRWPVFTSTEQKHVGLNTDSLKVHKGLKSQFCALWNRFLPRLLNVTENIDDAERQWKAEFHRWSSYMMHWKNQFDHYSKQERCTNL

SMILES | IC50 (AChE from electric eel) | Prevention of Aβ-induced cell toxicity (cell viability, MTT) (SH-SY5Y cells)
COc1cc(-c2nc3ccccc3s2)ccc1OCC(=O)NCCCNc1c2c(nc3ccccc13)CCCC2 [compound 16, 2-(4-(Benzo[d]thiazol-2-yl)-2-methoxyphenoxy)-N-(3-((1,2,3,4-tetrahydroacridin-9-yl)amino)propyl)acetamide] | 150 nM | capacity to prevent Aβ-induced toxicity; also recorded: prevented Aβ-induced cell toxicity
COc1cc(-c2nc3ccccc3s2)ccc1OCC(=O)NCCNc1c2c(nc3cc(Cl)ccc13)CCCC2 [compound 15, 2-(4-(Benzo[d]thiazol-2-yl)-2-methoxyphenoxy)-N-(2-((6-chloro-1,2,3,4 tetrahydroacridin-9-yl)amino)ethyl)acetamide] | 60 nM | capacity to prevent Aβ-induced toxicity; also recorded: prevented Aβ-induced cell toxicity
COc1cc(-c2nc3ccccc3s2)ccc1OCC(=O)NCC(O)CNc1c2c(nc3cc(Cl)ccc13)CCCC2 (stereo not drawn) [compound 19, 2-(4-(Benzo[d]thiazol-2-yl)-2-methoxyphenoxy)-N-(3-((6-chloro-1,2,3,4-tetrahydroacridin-9-yl)amino)-2-hydroxypropyl)acetamide] | 140 nM | capacity to prevent Aβ-induced toxicity; also recorded: prevented Aβ-induced cell toxicity
